One compound from article PMC11486972 (Hepatology (Baltimore, Md.), 2024) can be followed below.

The target of the experiment is cathepsin S (CTSS) (Homo sapiens, UniProt P25774). Description: cell-free enzyme assay with recombinant CTSS. The format is biochemical.
Chain of cathepsin S (CTSS) (P25774 115-331): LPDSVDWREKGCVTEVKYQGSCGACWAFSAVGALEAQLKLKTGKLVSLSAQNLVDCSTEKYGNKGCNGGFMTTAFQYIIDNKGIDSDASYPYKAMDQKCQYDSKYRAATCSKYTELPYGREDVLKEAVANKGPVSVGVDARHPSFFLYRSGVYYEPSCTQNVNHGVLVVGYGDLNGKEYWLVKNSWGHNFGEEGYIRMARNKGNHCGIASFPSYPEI

One may read the EC50 as the concentration at which the effect is half-maximal. As for `CN1CCN(C(=O)N[C@@H](Cc2ccccc2)C(=O)N[C@H](/C=C/S(=O)(=O)c2ccccc2)CCc2ccccc2)CC1` [K11777], the EC50 turned out to be 900 nM.
